Test results reported in publication PMC12040169 (PLOS Biology, 2025).

test: in vitro; conditions: human, hela cells, % viability

SMILES	viability at 28.5 h, 10 µM [%]
CCSc1nc2ccccc2n1CC(=O)O [CBK262059]	87.7
COc1ccc(-n2c(SCCc3ccccc3)nnc2-c2ccncc2)cc1 [CBK265618]	85.3
COc1ccccc1-c1ccc(NS(=O)(=O)c2ccc3c(c2)CCC(=O)N3)cc1 [CBK286353]	82.5
CC(=O)NCCn1cc2c(n1)[C@H]1CN(C(=O)CC(C)C)C[C@H]1CC2 [CBK284572]	99.1
N#Cc1cccnc1N1CCC(NC(=O)c2cc(Cl)c[nH]c2=O)CC1 [CBK306586]	104
O=C(O)C1Nc2ccc(Oc3ccccc3)cc2C2C=CCC12 (stereo not drawn) [CBK286542]	80.8
COc1ccc(C2(CNC(=O)c3ccc(C)cc3)CCOCC2)cc1 [CBK067060]	108
CCCc1[nH]nc(O)c1CCc1ccccc1C(F)(F)F [CBK075081]	93.9
Nc1nc(N)nc(-c2ccc(-c3nc(N)nc(N)n3)cc2)n1 [CBK261494]	90.4
N#Cc1c(N)n(CCN)c2nc3ccccc3nc12 [CBK266706]	87.4
CC(C)(C)OC(=O)NC1CCN(C(=O)Nc2ccc(OCc3ccccc3)cc2)CC1 [CBK086602]	98.4
CCn1cc(S(=O)(=O)N2CCCC3(CCCCC3)C2)c(C)n1 [CBK282756]	83.9
c1cc(OCc2cccs2)cc(N2CCNCC2)c1 [CBK022557F]	89.3
CCN(CC)CCNC(=O)c1ccc(/C=N/O)nc1 [CBK288375]	100
O=C(NCc1ccccc1)c1ccncc1 [CBK200189]	108
O=C(CCC1CCCO1)N1CCCC(COc2ccc(F)cc2)C1 (stereo not drawn) [CBK282031]	97.7
CC(NC(=O)C1C2CCC(CC2)C1C(=O)O)c1ccncc1 (stereo not drawn) [CBK287061]	102
CS(=O)(=O)CCS(=O)(=O)N1CCOCC1c1cccc(F)c1 (stereo not drawn) [CBK304111]	84.2
FC(F)(F)c1ccnc(SCCc2cnccn2)n1 [CBK105300]	88.6
COc1ccc(CNc2cncc(-c3cncc(OC)c3)n2)cc1 [CBK065388]	98.5
Nc1cccc(-c2cc(C(=O)NCCc3cccnc3)cnc2-c2ccc(F)cc2)c1 [CBK038016]	102
O=C(O)C1CC(C(=O)O)C(C(=O)O)CC1C(=O)O (stereo not drawn) [CBK261332]	89.4

SMILES	viability at 28.5 h, 10 µM [%]
Cn1cc(-c2ccccc2CN2CCCC2)c2onc(-c3ccccc3)c2c1=O [CBK036319C]	115
COc1cccc2cc(C(=O)NCc3ccc(NS(C)(=O)=O)cc3)oc12 [CBK161479]	70.8
Cc1ccc(N(CC(=O)Nc2ccc(Br)c(C)c2)S(=O)(=O)c2ccc(C)cc2)cc1 [CBK264038]	94.6
O=C1NC2(CCc3ccccc31)CCN(C/C=C/c1cccnc1)C2 (stereo not drawn) [CBK284622]	86.2
Cn1ccnc1C1(O)CCN(C(=O)c2ccccc2F)CC1 [CBK283536]	105
Cc1cccc(-c2nc(CN(C)CC(=O)NC(C)C)no2)c1 [CBK305109]	115
Cn1ncc(N)c1C(=O)Nc1cccc(Cl)c1 [CBK270107]	87.6
CCn1c(C)nnc1CN(CC1CCCO1)C1CCCC1 (stereo not drawn) [CBK304181]	96.4
c1cnc(-c2ccsc2)c(OC2CCCCC2)n1 [CBK106764]	97.6
CC(C)(C)OC(=O)N1CCC[C@H]([C@H](O)c2cccs2)C1 [CBK282301]	102
CN(C)CCCNc1cc(Cl)c(S(=O)(=O)N2CCCCC2)cc1C(=O)O [CBK265784]	95.5
CCOC(=O)C1CCN(S(=O)(=O)c2cccc3cccnc23)CC1 [CBK051242]	92.5
O=[N+]([O-])c1cc(F)ccc1Oc1cccc(C(F)(F)F)c1 [CBK002802]	91.9
O=C(Nc1ncc(-c2ccccc2)s1)c1csc([N+](=O)[O-])c1 [CBK298293]	87.4
Nc1ncnc2sc3c(c12)CCN(C(=O)c1ccc2nccnc2c1)C3 [CBK295588]	102
CCOC(=O)CNS(=O)(=O)c1ccc(C(F)(F)F)cc1[N+](=O)[O-] [CBK034446]	102
COc1ccc(F)cc1S(=O)(=O)N1CCCN(S(=O)(=O)c2cc(F)ccc2OC)CC1 [CBK266555]	93.5
O=C(CN1C2CCC1CC(O)(c1ccco1)C2)Nc1ccc(F)cc1 (stereo not drawn) [CBK284062]	87.6
CCc1ccc(C(=O)c2ccccc2C(=O)O)cc1 [CBK010776]	93.7
Cc1nn(CC(=O)OC2CCCCC2)c(=O)c2cc3sccc3n12 [CBK284045]	80.8
COc1cccc2cc(C(=O)C3=C(O)C(=O)N(CCN4CCOCC4)C3c3cccs3)oc12 (stereo not drawn) [CBK269433]	101
COc1cc(C(=O)N2CCN(C(=O)CC(C)C)CC2)cc(OC)c1OC [CBK003604]	99.2

SMILES	viability at 28.5 h, 10 µM [%]
c1ccc(-c2nc(-c3ccncc3)sc2-c2ccccc2)cc1 [CBK291203]	116
CN(C)CCN(C)C(=O)c1cc(-c2ccc(Cl)cc2)[nH]n1 [CBK115928]	94.9
c1cncc(CN2CCCC(OCc3nc(-c4ccncc4)no3)C2)c1 (stereo not drawn) [CBK288621]	114
O=C(O)CN1/C(=C\C=C2/SC(=S)N(c3ccccc3)C2=O)Sc2ccccc21 [CBK265251]	86.3
COC(=O)c1ccc(CSc2nnc(-c3ccc(OC)cc3)n2C(C)C)o1 [CBK297523]	96.4
COc1ccccc1CNCCCN1CCOCC1 [CBK278310C]	96.2
O=[N+]([O-])c1cc(Nc2ncnc3ccccc23)cc(Oc2ccccc2)c1 [CBK293928]	90.3
O=C(NCc1ccco1)c1c(NC(=O)C2CCCO2)sc2c1CCC2 (stereo not drawn) [CBK268180]	94.4
Cc1nc(CCNCc2c(C)nn(C)c2N2CCOCC2)cs1 [CBK304054]	101
O=C(Nc1ncnc2c1ccn2C1CC(O)C(CO)O1)c1ccccc1 (stereo not drawn) [CBK201289]	96.3
C[C@@H]1CN(C(=O)c2cncn2C)C[C@H](C)O1 [CBK200370]	90.3
CC(=O)N1CCN(c2ccc(Oc3ncc(C(F)(F)F)cc3Cl)cc2)CC1 [CBK161650]	104
COc1ccc(-c2nc(=S)c3c(n2CCCO)CCCC3)cc1 [CBK027898]	88.7
Cn1c(=O)n(C)c2cc(CN3CCN(C4CCCC4)C(=O)C3)ccc21 [CBK281909]	97.1
COc1ccc(N2C(=O)CSC23C(=O)N(Cc2ccc(Cl)cc2)c2ccccc23)cc1 (stereo not drawn) [CBK092396]	91.6
Cc1oc2nc(SCC(=O)NCc3cccnc3)nc(N)c2c1C [CBK266178]	106
O=S(=O)(Nc1ccc(C(O)(C(F)(F)F)C(F)(F)F)cc1)c1cccc2cccnc12 [CBK062092]	91
CN(C)c1cccc(Nc2ccc(-c3ccc(CCC(=O)O)cc3)cn2)c1 [CBK036918]	97.2
CN1CCN(CCCNC(=O)N(C)C2CCN(C)C2)CC1 (stereo not drawn) [CBK155993]	96.4
C[C@H](Oc1cncc(N2CCNCC2)n1)c1ccccc1Cl [CBK172341G]	108
CCc1ccc(C(=O)NCCCN2CCOCC2)cc1 [CBK268144]	104
CN(CC(=O)NNC(=O)c1ccc(C(C)(C)C)cc1)S(=O)(=O)c1cc(Cl)ccc1Cl [CBK267376]	107

SMILES	viability at 28.5 h, 10 µM [%]
COc1ccc(CC(CC(=O)O)C(=O)Nc2ccc(OC)cc2)cc1 (stereo not drawn) [CBK286975]	87.9
Oc1ccc(/C=N/Nc2nnn[nH]2)c(O)c1 [CBK260972]	99
COc1cccc2cc(C(=O)NC3CC3)oc12 [CBK149813]	97.8
COc1ccccc1NC(=O)c1ccc(OCC(=O)O)cc1 [CBK265849]	100
Cc1ccc(NC(=O)c2cc(NC(=O)C3C4C=CC(C4)C3C(=O)O)ccc2N2CCCCC2)cc1 (stereo not drawn) [CBK265350]	107
C=C(C)Cn1c(SCC(C)C)nnc1-c1ccccc1F [CBK200077]	107
CCCC/C=C/c1cnc(N2CCOCC2)c2nccn12 [CBK091256]	102
Cc1ccc(-c2nnc(CNC(=O)c3ccccc3-c3ccccc3)o2)s1 [CBK286298]	89.2
O=C(NCc1nnc2ccccn12)c1ccccc1 [CBK288064]	110
Cc1c(C(=O)Nc2ccc(S(=O)(=O)N3CCCCCC3)cc2)oc2ccc(Cl)cc12 [CBK267664]	89.2
CCCn1c(SCC(=O)c2ccc(CCNC(C)=O)cc2)n[nH]c1=O [CBK296965]	92.1
CC1CCCC(C)N1CC(O)COCc1ccc2c(c1)OCO2 (stereo not drawn) [CBK263134C]	86.3
CC1(C)CC(=O)C(C(=S)Nc2ccccc2)=C(O)C1 [CBK288395]	95.3
Cc1noc(C)c1CC(=O)NC(CN1CCCCC1)c1ccccc1 (stereo not drawn) [CBK281507]	89.1
CC(C)NC(=O)C1(Cc2ccc(-c3ccccc3)cc2)CCN(C(=O)C2CCC2)CC1 [CBK285750]	102
COc1ccc(CNC(=O)N(Cc2cccnc2)Cc2ccc3c(c2)OCO3)cc1OC [CBK159456]	87.3
COc1cc(Cl)c(C)cc1NC(=O)C1CC=CCC1C(=O)O (stereo not drawn) [CBK296667]	94.1
COCCn1cc(C(=O)N2CCOC3CCCCC32)c2ccccc21 (stereo not drawn) [CBK305288]	113
CC(C)(C)c1ccc(/C=N/NC(=O)CCSc2ccc(Cl)cc2)cc1 [CBK263696]	105
CN1CCC(CNC(=O)Cn2ccc3ccc(F)cc32)(N(C)C)CC1 [CBK282569]	107
CCCC(=O)N1CCCC([C@@H]2C[C@H](C(F)F)n3nc(C)cc3N2)C1 (stereo partly drawn) [CBK284721]	93.2

same assay, conditions: human, hela cells, % viability, bulk resorufin, single well

SMILES	viability at 28.5 h, 10 µM [%]
Cc1ccc(Cn2nc(C(=O)Nc3ccccn3)c3ccccc32)cc1 [CBK047839]	105
CCOc1cc(C=C2C(=O)NC(=S)NC2=O)ccc1OCc1c(C)no[n+]1[O-] [CBK263468]	99.3
CCCC(=O)C1(c2ccccc2)CCN(C(=O)Nc2cccc(SC)c2)CC1 [CBK016441]	94.6
